Reference: patent US20240190880A1 (THE REGENTS OF THE UNIVERSITY OF MICHIGAN, priority 2021, published 2024)

Each molecule was assayed against T1, ER (Homo sapiens, UniProt P03372) (assay: ER degradation activity, in-cell western blot analysis in T47D cells). Conditions: 16 hours, Table A does not say which cell line (T47D or MCF7), read-out: Potency (DC50).
T1 construct: host or cells: T47D and MCF7 human breast cancer cells
T1 sequence (P03372 1-595): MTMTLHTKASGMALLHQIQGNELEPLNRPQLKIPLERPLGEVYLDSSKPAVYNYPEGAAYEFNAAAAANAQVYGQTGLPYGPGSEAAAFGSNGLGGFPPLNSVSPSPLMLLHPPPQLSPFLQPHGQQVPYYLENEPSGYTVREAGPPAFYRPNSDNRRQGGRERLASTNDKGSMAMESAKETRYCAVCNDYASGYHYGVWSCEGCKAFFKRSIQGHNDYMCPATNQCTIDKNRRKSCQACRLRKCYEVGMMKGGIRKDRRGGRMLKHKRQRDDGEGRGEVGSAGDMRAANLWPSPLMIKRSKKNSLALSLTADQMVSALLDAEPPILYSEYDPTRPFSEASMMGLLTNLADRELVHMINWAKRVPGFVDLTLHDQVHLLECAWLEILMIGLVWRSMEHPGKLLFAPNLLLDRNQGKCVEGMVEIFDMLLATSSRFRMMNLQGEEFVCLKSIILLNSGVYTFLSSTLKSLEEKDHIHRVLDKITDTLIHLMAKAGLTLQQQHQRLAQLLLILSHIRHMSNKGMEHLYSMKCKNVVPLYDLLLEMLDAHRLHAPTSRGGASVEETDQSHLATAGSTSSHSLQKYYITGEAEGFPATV
Type: cell-based
Protocol: ER degradation activity was evaluated in the human breast cancer cell line T47D and MCF7 purchased from the American Type Culture Collection (ATCC), Manassas, VA, and maintained and cultured in Dulbecco's Modified Eagle's medium (DMEM) containing 10% fetal bovine serum, 1 unit/ml of penicillin and 1 μg/ml of streptomycin.
The protocol for the in-cell western blot analysis: a. seed cells in black-sided/clear bottom 96- or 384-well plates at 40,000 or 10,000 cells/well, overnight; b. add diluted compounds (final 0.5% DMSO), 16 hours. […] RT 2 h, gentle shaking. Negative control: cells plus secondary antibodies (no primary antibodies); e. wash ×4 with PBS+0.05-0.1% Tween 20, gentel shaking; f. anti-rabbit-680 and anti-mouse-800 (both 1:1000 in LiCor block+0.05% Tween20, RT 1 h, gentle shaking, no light. LI-COR: 0.2% to reduce background; g. wash×4 with PBS+0.05% Tween 20, gental shaking; h. add 100 μL or 25 μL of PBS to each well and read on CLX plate reader. The relative ER percentage in treated cells were obtained by comparing the values of treated wells to those in untreated and DMSO-treated wells as 100%.

SMILES	DC50
O=C1CCC(N2C(=O)c3cc4c(cc3C2=O)CN(CC(=O)N2CC3(C2)CN(c2ccc([C@@H]5c6ccc(O)cc6CC[C@@H]5c5ccccc5)cc2)C3)C4)C(=O)N1 (mixture of isomers) [E 8, 2-(2,6-dioxopiperidin-3-yl)-6-(2-(6-(4-((1R,2S)-6-hydroxy-2-phenyl-1,2,3,4-tetrahydronaphthalen-1-yl)phenyl)-2,6-diazaspiro[3.3]heptan-2-yl)-2-oxoethyl)-6,7-dihydropyrrolo[3,4-f]isoindole-1,3(2H,5H)-dione]	10 to 100 nM
O=C1CCC(N2C(=O)c3cc4c(cc3C2=O)CN(CC(=O)N2CCC3(CC2)CN(c2ccc([C@@H]5c6ccc(O)cc6CC[C@@H]5c5ccccc5)cc2)C3)C4)C(=O)N1 (mixture of isomers) [E 10, Rac-2-(2,6-dioxopiperidin-3-yl)-6-(2-(2-(4-((1R,2S)-6-hydroxy-2-phenyl-1,2,3,4-tetrahydronaphthalen-1-yl)phenyl)-2,7-diazaspiro[3.5]nonan-7-yl)-2-oxoethyl)-6,7-dihydropyrrolo[3,4-f]isoindole-1,3(2H,5H)-dione]	10 to 100 nM
O=C1CCC(N2C(=O)c3cc4c(cc3C2=O)CN(CC(=O)N2CCC3(CC2)CN(c2ccc([C@@H]5c6ccc(O)cc6CC[C@@H]5c5ccc(F)cc5Cl)cc2)C3)C4)C(=O)N1 (mixture of isomers) [E 11, rac-6-(2-(2-(4-((1R,2S)-2-(2-chloro-4-fluorophenyl)-6-hydroxy-1,2,3,4-tetrahydronaphthalen-1-yl)phenyl)-2,7-diazaspiro[3.5]nonan-7-yl)-2-oxoethyl)-2-(2,6-dioxopiperidin-3-yl)-6,7-dihydropyrrolo[3,4-f]isoindole-1,3(2H,5H)-dione]	10 to 100 nM
O=C1CCC(N2C(=O)c3cc4c(cc3C2=O)CN(CC2CCN(C(=O)C3CCN(c5ccc([C@@H]6c7ccc(O)cc7CC[C@@H]6c6ccccc6)cc5)CC3)CC2)C4)C(=O)N1 (mixture of isomers) [E 14, Rac-2-(2,6-dioxopiperidin-3-yl)-6-((1-(1-(4-((1R,2S)-6-hydroxy-2-phenyl-1,2,3,4-tetrahydronaphthalen-1-yl)phenyl)piperidine-4-carbonyl)piperidin-4-yl)methyl)-6,7-dihydropyrrolo[3,4-f]isoindole-1,3(2H,5H)-dione]	10 to 100 nM

Next, values leading:

DC50	SMILES
< 10 nM	O=C1CCC(N2C(=O)c3cc4c(cc3C2=O)CN(CC(=O)N2CC3(CCN(c5ccc([C@@H]6c7ccc(O)cc7CC[C@@H]6c6ccccc6)cc5)CC3)C2)C4)C(=O)N1 (mixture of isomers) [E 9, Rac-2-(2,6-dioxopiperidin-3-yl)-6-(2-(7-(4-((1R,2S)-6-hydroxy-2-phenyl-1,2,3,4-tetrahydronaphthalen-1-yl)phenyl)-2,7-diazaspiro[3.5]nonan-2-yl)-2-oxoethyl)-6,7-dihydropyrrolo[3,4-f]isoindole-1,3(2H,5H)-dione]
< 10 nM	O=C1CCC(N2C(=O)c3cc4c(cc3C2=O)CN(C(=O)C2CCN(C3CCN(c5ccc([C@@H]6c7ccc(O)cc7CC[C@@H]6c6ccc(F)cc6)cc5)CC3)CC2)C4)C(=O)N1 (mixture of isomers) [E 12, Rac-2-(2,6-dioxopiperidin-3-yl)-6-(1′-(4-((1R,2S)-2-(4-fluorophenyl)-6-hydroxy-1,2,3,4-tetrahydronaphthalen-1-yl)phenyl)-[1,4′-bipiperidine]-4-carbonyl)-6,7-dihydropyrrolo[3,4-f]isoindole-1,3(2H,5H)-dione]
< 10 nM	O=C1CCC(N2C(=O)c3cc4c(cc3C2=O)CN(C2CCN(C(=O)C3CCN(c5ccc([C@@H]6c7ccc(O)cc7CC[C@@H]6c6ccccc6)cc5)CC3)CC2)C4)C(=O)N1 (mixture of isomers) [E 13, Rac-2-(2,6-dioxopiperidin-3-yl)-6-(1-(1-(4-((1R,2S)-6-hydroxy-2-phenyl-1,2,3,4-tetrahydronaphthalen-1-yl)phenyl)piperidine-4-carbonyl)pi570 peridin-4-yl)-6,7-dihydropyrrolo[3,4-f]isoindole-1,3(2H,5H)-dione]
